Common to all, as to format: cell-based, human
In series [1] the test system is LNCaP cells. The series can be described thus: CCK-8 proliferation assay. As to conditions: infected 48 hours, cultured 1, 3 and 5 days, Scramble group = 100%. As to the method:
(§1) To examine the effect of GPR160-specific SiRNAs on proliferation of prostate cancer cells, PC-3 and LNCaP cells, after infected by virus for 48 hours, were plated in 96-well plates at a density of 5000/100/μl/well and 2500/100 μl/well, respectively, and cultured for 1, 3, and 5 days respectively, 10 μl/well of CCK-8 detection reagent (TaKaRa) was added 4 hours before the end of culture, and light absorption at 450 nm was detected at the end of incubation. The reference wavelength was 650 nm. The reading of Scramble group was set to 100%.
In general terms: Tetrazolium dyes change colour on reduction, which living cells bring about.

The test system of series [2] is PC-3 cells. The series can be described thus: CCK-8 proliferation assay. The note with it: infected 48 hours, cultured 1, 3 and 5 days, Scramble group = 100%. As to the method: as §1
The test system of series [3] is LNCaP cells. In words: Colony formation, crystal violet staining. The note with it: 12 to 20 days culture, versus ShGPR160-S10 control group (100%). The protocol:
(§2) Based on the above results, PC-3 and LNCaP cells were infected with ShGPR160-S6, ShGPR160-S7, and ShGPR160-S10 for 48 hours, and inoculated into […] at 1000/2 ml/well. After 12 to 20 days of continuous culture, the cells were stained with 0.1% crystal violet solution, dried, and the number of colonies per well counted. The group infected with ShGPR160-S10 virus was set as a 100% control.

For series [4], the system named is PC-3 cells. The series can be described thus: Colony formation, crystal violet staining. The note with it: 12 to 20 days culture, versus ShGPR160-S10 control group (100%). The protocol: as §2
For a further series, the system named is GPR160 gene. The series can be described thus: Quantitative RT-PCR of GPR160 expression after lentiviral shRNA infection. As to conditions: compared with control virus ShGPR160-S10. From the text:
The total RNA of each cultured cell was extracted with Trizol reagent (Invitrogen), Oligo-dT was used as primer, and reverse transcriptase was transcribed to generate cDNA. The template and primers were mixed with SYBR detection reagents (TaKaRa) and detected by 7300 Quantitative PCR instrument. The reference gene encodes the β-actin gene ACTB (NC 000007.14).
The lentivirus shRNA expression plasmid (Cat. No. TL312662) was purchased from OriGene, in which the target gene sequence targeted by the GPR160 siRNA is shown in SEQ ID NO: 1, and the sense strand sequence of the siRNA is shown in SEQ ID NO.: 6, SEQ ID NO: 7, SEQ ID NO.: 8, SEQ ID NO: 9, respectively. The sense strand sequence of the non-specific control siRNA is shown in SEQ ID NO: 10.
The siRNA expression plasmid pGFP-C-shGPR160 and the control plasmid pGFP-C-Scramble were extracted with Qiagene plasmid extraction kit and mixed with the packaging plasmid, and then 293T cells that had been inoculated for 24 hours were transfected with MegaTran (OriGene), and the virus supernatant was collected after 72 hours. After centrifugation at 15000 rpm for 15 minutes to remove cell debris, a quarter volume of Lentivirus Concentration (Biomiga) was added for concentration, and was stored at −80° C. in aliquots. Viruses produced by transfection of pGFP-C-shGPR160 plasmid containing the sequences SEQ ID NO: 6 to SEQ ID NO: 9 were labeled as ShGPR160-S6, ShGPR160-S7, ShGPR160-S8, and ShGPR160-S9, respectively. The virus produced by transfection of the non-specific control plasmid was designated ShGPR160-S10.
PC-3 and LNCaP cells were infected with the prepared lentiviruses at multiplicity of infection (MOI) of 40 and 10, respectively. After 72 hours, the total RNA of the infected cells was extracted, and the expression of GPR160 in the cells was detected by quantitative RT-PCR.

Where [5] appears, read: LNCaP cells, MOI 10, 72 hours after infection.
The mark [6] stands for this setting: PC-3 cells, MOI 40, 72 hours after infection.

Entries after “also recorded” stand apart in the source; their conditions may differ.

In the case of “ShGPR160-S6: Lentivirus from pGFP-C-shGPR160 plasmid; siRNA sense strand SEQ ID NO.: 6, 5′-TTGGTACAGGCTATCAGGATAACTTCCTA-3′”, the effect on proliferation result in the series with LNCaP cells [1] and in the series on PC-3 cells [2] was “significantly inhibited” throughout. Besides, the “number of clones formed” value in the series on LNCaP cells [3] and in the series with PC-3 cells [4] was “significantly less” in each case. Moreover, the results for the “inhibitory efficiency on GPR160 expression” value (“inhibitory efficiency” below) in the series on GPR160 gene (setting [5]) and in the series with GPR160 gene (setting [6]) were 86.2% and 87.8%, respectively.
For the substance “ShGPR160-S7: Lentivirus from pGFP-C-shGPR160 plasmid; siRNA sense strand SEQ ID NO.: 7, 5′-TTCTATGTCAGCATTCAGAGTTACTGGCT-3′”, the effect on proliferation result in the series with LNCaP cells [1] and in the series with PC-3 cells [2] was “significantly inhibited” each time. Further, the “number of clones formed” value in the series with LNCaP cells [3] and with PC-3 cells [4] was “significantly less” in each case. Moreover, the figures for the “inhibitory efficiency” value in the series with GPR160 gene (setting [5]) and in the series on GPR160 gene (setting [6]) were 91.7% and 85.0%, respectively.
Regarding “ShGPR160-S8: Lentivirus from pGFP-C-shGPR160 plasmid; siRNA sense strand SEQ ID NO.: 8, 5′-CCATCTACCAAAGCCTGAAGGCACAGAAT-3′”, the effect on proliferation entry in the series on LNCaP cells [1] is on record as “no inhibitory effect; also recorded: no significant effect”. In addition, the “inhibitory efficiency” value in the series on GPR160 gene (setting [5]) is 32.8%; in the series on GPR160 gene (setting [6]), 41.7%.
“ShGPR160-S9: Lentivirus from pGFP-C-shGPR160 plasmid; siRNA sense strand SEQ ID NO.: 9, 5′-CCATTTGTCAACTGGAAGTGCTGCTTCAT-3′”: the results for the “inhibitory efficiency” value in the series with GPR160 gene (setting [5]) and with GPR160 gene (setting [6]) were 56.2% and 41.8%, respectively.
